Results taken from US6936469B2, “Methods for delivering nucleic acid molecules into cells and assessment thereof” (Chromos Molecular Systems Inc., priority 2001, dated 2005).

How the values were obtained:
[1] = system: V79-4 (Chinese Hamster Lung fibroblast) cells; test: Flow cytometry measurement of delivery of IdU labeled ACes with transfection agents; format: cell-based; conditions: percentage of transfected cells containing IdU labeled ACes, 1×10^6 ACes complexed with agent, agent dose in microliters per Table 2
Procedure: All compounds were tested in a Chinese Hamster lung fibroblast line (V79-4, ATCC number CCL-39). Approximately 17 hours (2 cell doublings) prior to transfection, exponentially growing cells were trypsinized and plated at 250,000 cells per well into a 6 well petri dish with Dulbecco's Modified Eagle Medium (Life Technologies, Burlington, ON) and supplemented with 10% FBS (Can Sera, Rexdale ON)). At the time of transfection, the number of cells per well was estimated to be approximately 1 million. For transfection, each individual manufacturer's protocol for complexing to naked DNA was followed, with the exception that the amount of transfection agent used was varied, to reflect the different amount and type of DNA present, as well as the different ionic strength of the complexing. […]
The percentage of transfected cells containing IdUrd-labeled ACes was determined using flow cytometry and collecting FITC fluorescence. Data were accumulated to form bivariate channel distribution showing forward scatter versus green fluorescence (IdUrd-FITC). The fluorescence level at which cells were determined to be positive was established by visual inspection of the histogram of negative control cells such that the gate for the negative cells was set such that 1% appeared in the positive region. […]

Hep-G2 cells = test: Ultrasound mediated transfection of Hep-G2 cells with GFP chromosomes; format: cell-based
Procedure: (§1) Transfection of the cells was performed as follows. The medium was removed from the cells, and the cells were washed twice with HBSS (Hanks balanced salt solution without Phenol Red (Gibco BRL, UK)) at 37° C. Then 500 μl HBSS at 37° C. was added per well, followed by 10 μl of the freshly prepared vesicle solution (prepared in Example 2) to yield a final concentration of 23.3 nmol/ml.
(§2) Alternatively, the medium was removed from the cells, and the cells were washed twice with HBSS. 500 μl HBSS/lipid solution at 37° C. was added to each well. The HBSS/lipid solution was prepared by adding 1 μl ethanolic lipid solution (prepared as described above) to 500 μl HBSS under vigorous vortexing. The plates were then sealed with parafilm tape and shaken gently at room temperature for 30 min. After incubation, ultrasound was applied at an output energy of 0.5 Watt/cm^2 for 60 sec through the bottom of the plate to the cells. The ultrasound was mediated by an ultrasound gel (Aquasonic 100, Parker, N.J.) between transducer and plate. The ultrasound was applied with an ImaRx Sonoporator 100. Immediately after applying ultrasound one GFP chromosome per seeded cell (2×10^5-5×10^5) (prepared in Example 1) was added. The plate was then sealed again and shaken gently for 1 h at room temperature. […]

CHO-KI cells = test: Ultrasound mediated transfection of CHO-KI cells with GFP chromosomes; format: cell-based
Procedure: Vesicles were prepared at a lipid concentration of 700 nmol/ml lipid (cationic lipid/DOPE 1:1) as follows. In a glass tube (10 ml) 350 nmol cationic lipid (SAINT-2) was mixed with 350 nmol dioleoylphosphatidylethanolamine (DOPE), both solubilized in an organic solvent (Chloroform, Methanol or Chloroform/Methanol 1:1, v/v). Dioleoylphosphatidylethanolamine (DOPE; Avanti Polar Lipids, Alabaster, Ala.) forms inverse hexagonal phases in a membrane and weakens the membrane. Other effectors that may be used are cis-unsaturated phosphatidylethanolamines, cis-unsaturated fatty acids, and cholesterol.
The solvent was evaporated under a stream of nitrogen (15 min/ 250 μl solvent at room temperature). The remaining solvent was removed totally by drying the lipid for 15 min in a desiccator under high vacuum from a vacuum pump. To the dried mixture was added 1 ml ultrapure water. This was vortexed vigorously for about […]. The resulting solution was sonicated in an ultrasonication bath (Laboratory Supplies Inc. NY) until a clear solution was obtained. The resulting suspension contained a population of unilamellar vesicles with a size distribution between 50 to 100 nm.
CHO-KI cells were grown at 37°, 5% CO2, in CHO-S-SFM 2 Medium, (Gibco BRL, Paisley, UK). Between 2×10^5 and 5×10^5 cells were plated onto sterile glass slides in a 12 well plate 24 h before usage.
as §1, §2

A9 cells = test: Ultrasound mediated transfection of A9 cells with GFP chromosomes; format: cell-based, murine
Procedure: as §1, §2

[2] = Saint-2/DOPE 1:1, ultrasound 0.5 Watt/cm^2 for 60 sec

cells remained on the glass slide after transfection (Hep-G2 cells; [2]) [%] | cells remained on the glass slide after transfection (CHO-KI cells; Saint-2/DOPE 1:1, ultrasound 0.5 Watt/cm^2 for 60 sec, visual inspection) [%] | cells remained on the glass after transfection (A9 cells; [2]) [%] | SMILES | DELIVERY % IdU positive (24 hours) [1] [%] | remaining cells positive for green fluorescent protein expression (Hep-G2 cells; of the cells remaining on the slide) [%] | GFP positive cells, of original population (CHO-KI cells; after 48 hours) [%] | remaining cells positive for green fluorescent protein expression (CHO-KI cells; after 48 hours, of the cells remaining on the slide) [%] | cells containing an intact artificial chromosome (FISH) (CHO-KI cells; after culturing for two weeks) [%] | remaining cells positive for green fluorescent protein expression (A9 cells; of the cells remaining on the glass) [%]
 |  |  | CCCCCCCCCCCCCCN=C(CCNCCCCCCCCCCCCCC)NC(C)(C)C [CLONFECTIN, N-t-butyl-N′-tetradecyl-3-tetradecyl-aminopropionamidine] | 0.61 |  |  |  |  | 
30 | 30 | 30 | CCCCCCCCC=CCCCCCCCCC(CCCCCCCCC=CCCCCCCCC)c1cc[n+](C)cc1.[Cl-] (stereo not drawn) [Saint-2, 1-methyl-4-(1-octadec-9-enyl-nonadec-10-enylenyl) pyridinium chloride] |  | 80 | 3 | 10 | 1.4 | 50
